According to patent US10696615B2, “Prenylated hydroxystilbenes” (The University of Sydney, priority 2011, dated 2020):

Tests used:
HL-60 (TB) = experiment: NCI in vitro cancer screen, Leukemia; type: cell-based, human; conditions: HL-60 (TB)
MOLT-4 = experiment: NCI in vitro cancer screen, Leukemia; type: cell-based, human; conditions: MOLT-4
RPMI-8226 = experiment: NCI in vitro cancer screen, Leukemia; type: cell-based, human; conditions: RPMI-8226
HOP-62 = experiment: NCI in vitro cancer screen, Non-Small Cell Lung Cancer; type: cell-based, human; conditions: HOP-62
HOP-92 = experiment: as above; type: cell-based, human; conditions: HOP-92
NCI-H23 = experiment: as above; type: cell-based, human; conditions: NCI-H23
NCI-H460 = experiment: as above; type: cell-based, human; conditions: NCI-H460
COLO 205 = experiment: NCI in vitro cancer screen, Colon Cancer; type: cell-based, human; conditions: COLO 205
HCT-15 = experiment: NCI in vitro cancer screen, Colon Cancer; type: cell-based, human; conditions: HCT-15
HT29 = experiment: NCI in vitro cancer screen, Colon Cancer; type: cell-based, human; conditions: HT29
KM12 = experiment: NCI in vitro cancer screen, Colon Cancer; type: cell-based, human; conditions: KM12
SF-268 = experiment: NCI in vitro cancer screen, CNS Cancer; type: cell-based, human; conditions: SF-268
SF-539 = experiment: NCI in vitro cancer screen, CNS Cancer; type: cell-based; conditions: SF-539
U251 = experiment: NCI in vitro cancer screen, CNS Cancer; type: cell-based, human; conditions: U251
LOX IMVI = experiment: NCI in vitro cancer screen, Melanoma; type: cell-based, human
MALME-3M = experiment: NCI in vitro cancer screen, Melanoma; type: cell-based, human
SK-MEL-2 = experiment: NCI in vitro cancer screen, Melanoma; type: cell-based, human; conditions: SK-MEL-2
UACC-62 = experiment: NCI in vitro cancer screen, Melanoma; type: cell-based, human; conditions: UACC-62
OVCAR-4 = experiment: NCI in vitro cancer screen, Ovarian Cancer; type: cell-based, human; conditions: OVCAR-4
OVCAR-5 = experiment: NCI in vitro cancer screen, Ovarian Cancer; type: cell-based, human; conditions: OVCAR-5
ADR-RES (NCI/ADR-RES) = experiment: NCI in vitro cancer screen, Ovarian Cancer; type: cell-based, human
A498 = experiment: NCI in vitro cancer screen, Renal Cancer; type: cell-based, human; conditions: A498
CAKI-1 = experiment: NCI in vitro cancer screen, Renal Cancer; type: cell-based, human; conditions: CAKI-1
SN12C = experiment: NCI in vitro cancer screen, Renal Cancer; type: cell-based, human
TK-10 = experiment: NCI in vitro cancer screen, Renal Cancer; type: cell-based, human; conditions: TK-10
UO-31 = experiment: NCI in vitro cancer screen, Renal Cancer; type: cell-based, human; conditions: UO-31
PC-3 = experiment: NCI in vitro cancer screen, Prostate Cancer; type: cell-based, human; conditions: PC-3
T-47D = experiment: NCI in vitro cancer screen, Breast Cancer; type: cell-based, human
[1] = Homo sapiens, read-out: LC50 (the source's name)

COc1cc(/C=C/c2cc(O)cc(OCC=C(C)C)c2)ccc1O [USYDS2, (E)-3-(3-methyl-2-butenyloxy)-4′,5-dihydroxy-3′-methoxystilbene] was tested, and the TGI (HL-60 (TB)) was 9.77 µM, the GI50 (HL-60 (TB); Homo sapiens) was 1.34 µM and the CC50 (HL-60 (TB); [1]) was > 100 µM. The GI50 (MOLT-4; Homo sapiens) was 4.16 µM, the CC50 (MOLT-4; [1]) was > 100 µM and the TGI (MOLT-4) was 28.3 µM. For the same molecule, the GI50 (RPMI-8226; Homo sapiens) was 4.32 µM, the CC50 (RPMI-8226; [1]) was > 100 µM and the TGI (RPMI-8226) was 52.8 µM. For the same molecule, the TGI (HOP-62) was 18.5 µM, the GI50 (HOP-62; Homo sapiens) was 4.44 µM and the CC50 (HOP-62; [1]) was 43.4 µM. It also gave a TGI (HOP-92) of 21.1 µM, a GI50 (HOP-92; Homo sapiens) of 3.98 µM and a CC50 (HOP-92; [1]) of 60.1 µM. For the same molecule, the GI50 (NCI-H23; Homo sapiens) was 2.89 µM, the LC50 (NCI-H23; Homo sapiens) was > 100 µM and the TGI (NCI-H23) was 23.6 µM. The GI50 (NCI-H460; Homo sapiens) was 2.47 µM, the CC50 (NCI-H460; [1]) was 58.7 µM and the TGI (NCI-H460) was 10.9 µM. The TGI (COLO 205) was 31.7 µM, the GI50 (COLO 205; Homo sapiens) was 17.3 µM and the CC50 (COLO 205; [1]) was 57.9 µM. For the same molecule, the TGI (HCT-15) was 17.8 µM, the GI50 (HCT-15; Homo sapiens) was 0.76 µM and the CC50 (HCT-15; [1]) was 97.3 µM. For the same molecule, the TGI (HT29) was 32.2 µM, the GI50 (HT29; Homo sapiens, HT-29) was 17.4 µM and the CC50 (HT29; Homo sapiens, HT-29, read-out: LC50 (the source's name)) was 59.6 µM. For the same molecule, the GI50 (KM12; Homo sapiens) was 2.09 µM, the CC50 (KM12; [1]) was 45 µM and the TGI (KM12) was 11.7 µM. For the same molecule, the GI50 (SF-268; Homo sapiens) was 4.5 µM, the CC50 (SF-268; [1]) was 51.6 µM and the TGI (SF-268) was 19.2 µM. It also gave a GI50 (SF-539; Homo sapiens) of 1.92 µM, a CC50 (SF-539; [1]) of 50.2 µM and a TGI (SF-539) of 13.8 µM. For the same molecule, the GI50 (U251; Homo sapiens, U-251) was 2.96 µM, the CC50 (U251; Homo sapiens, U-251, read-out: LC50 (the source's name)) was 41 µM and the TGI (U251) was 14.7 µM. For the same molecule, the TGI (LOX IMVI) was 19.4 µM, the GI50 (LOX IMVI; Homo sapiens) was 1.56 µM and the CC50 (LOX IMVI; [1]) was > 100 µM. The GI50 (MALME-3M; Homo sapiens, Malme-3M) was 1.88 µM, the CC50 (MALME-3M; Homo sapiens, Malme-3M, read-out: LC50 (the source's name)) was 94.9 µM and the TGI (MALME-3M; MALME-3M) was 26.2 µM. It also gave a GI50 (SK-MEL-2; Homo sapiens) of 1.25 µM, an LC50 (SK-MEL-2; Homo sapiens) of 41.6 µM and a TGI (SK-MEL-2) of 9.59 µM. For the same molecule, the GI50 (UACC-62; Homo sapiens) was 3.73 µM, the CC50 (UACC-62; [1]) was 44.6 µM and the TGI (UACC-62) was 15.9 µM. The GI50 (OVCAR-4; Homo sapiens) was 5.34 µM, the CC50 (OVCAR-4; [1]) was > 100 µM and the TGI (OVCAR-4) was 28.0 µM. It also gave a GI50 (OVCAR-5; Homo sapiens) of 10.1 µM, a CC50 (OVCAR-5; [1]) of 60.9 µM and a TGI (OVCAR-5) of 24.8 µM. For the same molecule, the TGI (ADR-RES (NCI/ADR-RES); ADR-RES) was 4.95 µM, the GI50 (ADR-RES (NCI/ADR-RES); Homo sapiens, NCI/ADR-RES) was 0.4 µM and the CC50 (ADR-RES (NCI/ADR-RES); Homo sapiens, NCI/ADR-RES, read-out: LC50 (the source's name)) was > 100 µM. For the same molecule, the TGI (A498) was 23.8 µM, the GI50 (A498; Homo sapiens) was 10.3 µM and the CC50 (A498; [1]) was 55.2 µM. The TGI (CAKI-1) was >100 µM, the GI50 (CAKI-1; Homo sapiens) was 6.13 µM and the CC50 (CAKI-1; [1]) was > 100 µM. It also gave a TGI (SN12C) of 18.8 µM, a GI50 (SN12C; Homo sapiens) of 4.02 µM and a CC50 (SN12C; [1]) of 60.2 µM. It also gave a GI50 (TK-10; Homo sapiens) of 4.69 µM, an LC50 (TK-10; Homo sapiens) of 40.1 µM and a TGI (TK-10) of 14.3 µM. It also gave a GI50 (UO-31; Homo sapiens) of 2.6 µM, a CC50 (UO-31; [1]) of 48.9 µM and a TGI (UO-31) of 16.9 µM. The GI50 (PC-3; Homo sapiens) was 3.84 µM, the CC50 (PC-3; [1]) was 65.8 µM and the TGI (PC-3) was 18.7 µM. For the same molecule, the TGI (T-47D) was 33.6 µM, the GI50 (T-47D; Homo sapiens, T47D) was 5.66 µM and the CC50 (T-47D; Homo sapiens, T47D, read-out: LC50 (the source's name)) was > 100 µM.
